These results are taken from EP1247803A2, “Indolinone compounds suitable for modulation of protein kinases” (Sugen, Inc., priority 1996, dated 1998).

SMILES strings stand for the structures.

This assay deals with T1, FLK-1 receptor (Mus musculus, UniProt P35918).
T1 construct: expressed in transfected cells; host or cells: NIH3T3 C7#3
T1 sequence (P35918 20-1345): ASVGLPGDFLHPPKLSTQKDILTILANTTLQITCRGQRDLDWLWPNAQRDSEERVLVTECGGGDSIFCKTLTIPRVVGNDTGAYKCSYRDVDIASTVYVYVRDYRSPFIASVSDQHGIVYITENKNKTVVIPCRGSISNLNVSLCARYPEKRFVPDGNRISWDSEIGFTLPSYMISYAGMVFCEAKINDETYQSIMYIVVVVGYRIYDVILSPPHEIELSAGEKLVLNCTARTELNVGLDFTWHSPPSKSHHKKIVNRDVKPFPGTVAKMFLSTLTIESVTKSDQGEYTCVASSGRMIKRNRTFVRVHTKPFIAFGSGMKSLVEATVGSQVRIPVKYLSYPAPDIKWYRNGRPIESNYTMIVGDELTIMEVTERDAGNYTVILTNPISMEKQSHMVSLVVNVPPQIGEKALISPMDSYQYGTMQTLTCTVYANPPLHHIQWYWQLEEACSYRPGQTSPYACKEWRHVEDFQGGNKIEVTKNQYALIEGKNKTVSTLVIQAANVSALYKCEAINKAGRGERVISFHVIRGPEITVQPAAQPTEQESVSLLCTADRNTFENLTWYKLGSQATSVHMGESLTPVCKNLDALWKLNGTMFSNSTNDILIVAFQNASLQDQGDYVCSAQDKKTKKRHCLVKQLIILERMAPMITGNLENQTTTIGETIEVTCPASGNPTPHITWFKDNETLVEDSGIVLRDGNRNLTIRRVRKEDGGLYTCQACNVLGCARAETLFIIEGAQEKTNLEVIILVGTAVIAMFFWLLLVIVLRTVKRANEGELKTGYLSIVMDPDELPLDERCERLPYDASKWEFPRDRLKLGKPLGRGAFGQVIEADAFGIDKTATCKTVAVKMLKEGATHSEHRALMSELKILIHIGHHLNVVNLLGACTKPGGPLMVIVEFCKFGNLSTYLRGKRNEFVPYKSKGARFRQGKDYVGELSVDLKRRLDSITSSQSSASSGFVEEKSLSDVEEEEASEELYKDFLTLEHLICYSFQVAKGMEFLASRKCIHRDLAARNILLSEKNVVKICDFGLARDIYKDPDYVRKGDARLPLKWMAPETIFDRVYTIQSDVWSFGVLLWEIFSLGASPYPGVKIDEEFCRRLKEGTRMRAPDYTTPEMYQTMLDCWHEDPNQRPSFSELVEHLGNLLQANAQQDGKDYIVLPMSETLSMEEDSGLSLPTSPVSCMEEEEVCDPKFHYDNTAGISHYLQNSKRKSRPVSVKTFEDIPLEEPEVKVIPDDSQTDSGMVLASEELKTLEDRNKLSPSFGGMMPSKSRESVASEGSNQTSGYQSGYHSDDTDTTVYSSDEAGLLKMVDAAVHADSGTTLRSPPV
The assay can be described thus: FLK-1 ELISA (kinase activity of the FLK-1 receptor in FLK-1/NIH3T3 cells, VEGF stimulated). The format is cell-based. In outline:
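An ELISA using affinity-purified rabbit anti-FLK-1 antiserum on anti-rabbit IgG-coated plates measured VEGF-stimulated FLK-1 kinase activity. NIH3T3 C7#3 cells carrying FLK-1 were serum-starved (0.1% FBS) overnight, then exposed to compound (final 1:200 dilution, 0.5% DMSO) for two hours at 37 °C.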
For orientation: An ELISA detects its analyte on a solid surface through an enzyme-linked reagent.
Regarding `CCOC(=O)c1c(C)[nH]c(C=C2C(=O)Nc3c(Br)cc(Br)cc32)c1C` [10718/A02], the “Fik Kinase %Inhibition” value is 3.0%.
To `CNS(=O)(=O)c1ccc2c(c1)C(=Cc1coc3ccccc3c1=O)C(=O)N2` [10727/D07] belongs 19.7%; to `COC(=O)c1[nH]c(C)c(C=C2C(=O)Nc3c(Br)cc(Br)cc32)c1C(=O)OC` [10718/A07], 16.2%.
To `O=C1Nc2c(Br)cc(Br)cc2C1=Cc1ccc2ccccc2c1O` [10718/A04] belongs 6.9%; to `O=C1Nc2c(Br)cc(Br)cc2C1=Cc1c(F)cccc1C(F)(F)F` [10728/A09], -5.5%.
The result for `N#Cc1ccc(C=C2C(=O)Nc3ccc(S(=O)(=O)Nc4ccc(C(F)(F)F)cc4)cc32)cc1` [10727/E09] reads 9.3%; that for `O=C1Nc2c(Br)cc(Br)cc2C1=Cc1ccc2c(c1)Cc1ccccc1-2` [10728/A06], -10.4%; that for `N#Cc1cccc(C=C2C(=O)Nc3ccc(S(=O)(=O)N4CCOCC4)cc32)c1` [10727/F08], 12.5%.
